Results as given in patent publication US9604946B2, “Methods for modulating bacterial virulence and related compounds” (priority 2013, dated 2017).

Tests used:
[1] = test system: EHEC; experiment: qRT-PCR of gene expression in EHEC as change from wild-type expression; format: cell-based, enterohemorrhagic E. coli; conditions: 5 and 500 nM compound
[2] = test system: S. Typhimurium; experiment: S. Typhimurium replication in J774 macrophages with and without compound; format: cell-based; conditions: 500 and 5 nM compound
Experimental: Compounds CF325, CF326, CF327, CF329, CF330, CF331, CF332, CF333, CF334, CF338, CF339, CF340, CF341, CF342, CF343, CF344, CF345, CF349, CF350, CF351, and CF352 were screened by measuring the inhibition of S. Typhimurium replication in the presence (500 and 5 nM) and absence of the compound with J774 macrophage or using a qRT PCR study comparing the levels of gene expression in the presence of 5 and 500 nM concentrations of the target compound. Compounds CF331, CF338, CF340, CF341 and CF345 were also screened using a fluorescein actin staining test to determine the number of HeLa cells infected by measuring the inhibition of AE lesion formation.

[3] = biological target: QseC (Escherichia coli O157:H7, UniProt Q8X524); conditions: earlier work, U.S. Pat. No. 8,252,841; Clarke et al., 2006; Rasko et al., 2008; cited from earlier work
[4] = test system: A. baumannii; experiment: Biofilm formation by A. baumannii; format: cell-based, Acinetobacter baumannii; conditions: acts through QseC

Chain of QseC (Q8X524 whole entry): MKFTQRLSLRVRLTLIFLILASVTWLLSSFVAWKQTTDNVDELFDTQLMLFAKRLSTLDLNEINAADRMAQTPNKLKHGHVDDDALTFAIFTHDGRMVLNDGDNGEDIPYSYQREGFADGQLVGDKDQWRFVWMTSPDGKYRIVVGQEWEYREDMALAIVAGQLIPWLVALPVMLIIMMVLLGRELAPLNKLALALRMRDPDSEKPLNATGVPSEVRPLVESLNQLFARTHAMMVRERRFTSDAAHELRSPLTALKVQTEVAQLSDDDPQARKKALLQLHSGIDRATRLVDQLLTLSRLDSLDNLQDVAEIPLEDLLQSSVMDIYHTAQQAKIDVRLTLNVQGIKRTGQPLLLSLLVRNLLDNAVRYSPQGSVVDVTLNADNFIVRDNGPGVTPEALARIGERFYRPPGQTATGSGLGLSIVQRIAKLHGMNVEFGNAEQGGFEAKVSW

SMILES	activity on virulence of EHEC (gene expression level by qRT-PCR) [1]	modulation of S. Typhimurium virulence (intra J774 macrophage replication) [2]	further results
CC12CC3CC(C)(C1)CC(C(=O)Nc1nc(C#N)cs1)(C3)C2 [CF352]	antagonist activity against the virulence of EHEC		
COc1ccc(C(=O)Nc2nc(C)c(C)s2)c(OC)c1 [CF333]	antagonist activity against the virulence of EHEC		
COc1ccc(C(=O)Nc2nccs2)c(OC)c1 [CF326]	antagonist activity against the virulence of EHEC	showed potency in preventing S. Typhimurium virulence	
COc1cccc(OC)c1C(=O)Nc1nccs1 [CF332]		showed little modulation of the virulence of S. Typhimurium	
O=C(Nc1nccs1)C12CC3CC(CC(C3)C1)C2 [CF331]	antagonist activity against the virulence of EHEC		rank of modulation of bacterial virulence among the EHEC antagonist compounds [1]: greatest modulation of bacterial virulence
Cc1ccc(N(CC2=NCCN2)c2cccc(O)c2)cc1 [phentolamine]			block of QseC response to the signal [3]: block this response; inhibition of biofilm formation [4]: inhibited
O=C(Nc1nccs1)c1c(Cl)cc(Cl)cc1Cl [CF334]	acted as agonist of virulence		
CCOC(=O)c1csc(NC(=O)C23CC4CC(C)(CC(C)(C4)C2)C3)n1 [CF351]	acted as agonist of virulence		
CC12CC3CC(C)(C1)CC(C(=O)Nc1ncco1)(C3)C2 [CF349]	acted as agonist of virulence		
O=S(=O)(Nc1ccccc1)c1ccc(NC(=S)Nc2ccccc2)cc1 [LED209]			block of QseC response to the signal [3]: can block the QseC response to the signal
CC(=O)Nc1nccs1 [CF327]	acted as agonist of virulence	showed little modulation of the virulence of S. Typhimurium	
CC12CC3CC(C)(C1)CC(C(=O)Nc1nccs1)(C3)C2 [CF345]	antagonist activity against the virulence of EHEC		rank of modulation of bacterial virulence among the EHEC antagonist compounds [1]: greatest modulation of bacterial virulence
CC12CC3CC(C)(C1)CC(C(=O)Nc1ncc(F)s1)(C3)C2 [CF354]	antagonist activity against the virulence of EHEC		
O=C(Nc1nccs1)c1c(F)cc(F)cc1F [CF325]		showed potency in preventing S. Typhimurium virulence	
COc1ccc(C(=O)Nc2ncc[nH]2)c(OC)c1 [CF330]	acted as agonist of virulence		
COc1ccc(C(=O)Nc2nc(-c3ccc(C)cc3)cs2)c(OC)c1 [CF329]	antagonist activity against the virulence of EHEC	showed little modulation of the virulence of S. Typhimurium	
